Measurements published in patent US11220504B2, “Pyrrolo[3,2-d] pyrimidine derivatives for the treatment of viral infections and other diseases” (JANSSEN SCIENCES IRELAND UNLIMITED COMPANY, priority 2012, dated 2022).

Key:
[1] = target: T1, human TLR7 (Homo sapiens, UniProt Q9NYK1); assay: TLR7 cellular reporter assay (HEK293, NFκB-luc); assay type: cell-based; conditions: HEK293 cells transfected with CMV-TLR7 and NFκB-luc, 6 hours incubation; lowest effective concentration
T1 construct: expressed in transfected cells; host or cells: HEK293 cells, transient transfection with CMV-TLR7 plasmid and NFκB-luc plasmid
T1 sequence (Q9NYK1 27-1049): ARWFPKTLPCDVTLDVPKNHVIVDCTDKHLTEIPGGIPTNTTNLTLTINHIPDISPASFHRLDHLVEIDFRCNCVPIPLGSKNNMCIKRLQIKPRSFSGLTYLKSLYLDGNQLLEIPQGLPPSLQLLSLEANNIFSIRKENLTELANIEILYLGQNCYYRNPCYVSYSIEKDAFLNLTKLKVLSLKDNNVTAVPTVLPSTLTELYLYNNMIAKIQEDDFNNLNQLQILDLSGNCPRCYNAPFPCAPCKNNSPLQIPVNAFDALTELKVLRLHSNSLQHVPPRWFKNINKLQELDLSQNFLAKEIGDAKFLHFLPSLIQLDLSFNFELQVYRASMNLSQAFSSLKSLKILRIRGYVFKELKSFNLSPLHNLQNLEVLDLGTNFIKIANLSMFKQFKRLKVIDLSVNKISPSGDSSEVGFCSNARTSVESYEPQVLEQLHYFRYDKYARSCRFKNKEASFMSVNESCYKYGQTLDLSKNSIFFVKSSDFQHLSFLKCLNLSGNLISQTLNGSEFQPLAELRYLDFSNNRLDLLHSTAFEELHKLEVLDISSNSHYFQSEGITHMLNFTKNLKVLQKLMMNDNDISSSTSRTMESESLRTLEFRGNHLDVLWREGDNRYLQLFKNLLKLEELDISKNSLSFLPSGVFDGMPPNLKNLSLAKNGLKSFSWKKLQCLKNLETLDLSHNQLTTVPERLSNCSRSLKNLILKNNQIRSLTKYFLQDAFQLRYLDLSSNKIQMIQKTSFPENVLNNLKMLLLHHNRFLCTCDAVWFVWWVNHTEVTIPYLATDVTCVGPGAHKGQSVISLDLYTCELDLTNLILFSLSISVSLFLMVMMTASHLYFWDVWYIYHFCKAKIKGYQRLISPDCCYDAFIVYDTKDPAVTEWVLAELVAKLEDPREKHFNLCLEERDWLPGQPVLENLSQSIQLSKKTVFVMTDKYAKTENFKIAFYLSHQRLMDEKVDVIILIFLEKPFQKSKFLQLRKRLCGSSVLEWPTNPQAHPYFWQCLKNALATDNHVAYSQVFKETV
Outline: (§1)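 HEK293 cells transiently transfected with receptor expression vector plus NFκB-luciferase reporter, exposed to compound (added in 4% DMSO) for 6 hours at 37° C, 5% CO2. Luciferase activity measured by luminescence; dose-response curves from quadruplicate measurements.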

[2] = target: T2, human TLR8 (Homo sapiens, UniProt Q9NR97); assay: TLR8 cellular reporter assay (HEK293, NFκB-luc); assay type: cell-based; conditions: HEK293 cells transfected with CMV-TLR8 and NFκB-luc, 6 hours incubation; lowest effective concentration
T2 construct: expressed in transfected cells; host or cells: HEK293 cells, transient transfection with TLR8 plasmid and NFκB-luc plasmid
T2 sequence (Q9NR97 27-1041): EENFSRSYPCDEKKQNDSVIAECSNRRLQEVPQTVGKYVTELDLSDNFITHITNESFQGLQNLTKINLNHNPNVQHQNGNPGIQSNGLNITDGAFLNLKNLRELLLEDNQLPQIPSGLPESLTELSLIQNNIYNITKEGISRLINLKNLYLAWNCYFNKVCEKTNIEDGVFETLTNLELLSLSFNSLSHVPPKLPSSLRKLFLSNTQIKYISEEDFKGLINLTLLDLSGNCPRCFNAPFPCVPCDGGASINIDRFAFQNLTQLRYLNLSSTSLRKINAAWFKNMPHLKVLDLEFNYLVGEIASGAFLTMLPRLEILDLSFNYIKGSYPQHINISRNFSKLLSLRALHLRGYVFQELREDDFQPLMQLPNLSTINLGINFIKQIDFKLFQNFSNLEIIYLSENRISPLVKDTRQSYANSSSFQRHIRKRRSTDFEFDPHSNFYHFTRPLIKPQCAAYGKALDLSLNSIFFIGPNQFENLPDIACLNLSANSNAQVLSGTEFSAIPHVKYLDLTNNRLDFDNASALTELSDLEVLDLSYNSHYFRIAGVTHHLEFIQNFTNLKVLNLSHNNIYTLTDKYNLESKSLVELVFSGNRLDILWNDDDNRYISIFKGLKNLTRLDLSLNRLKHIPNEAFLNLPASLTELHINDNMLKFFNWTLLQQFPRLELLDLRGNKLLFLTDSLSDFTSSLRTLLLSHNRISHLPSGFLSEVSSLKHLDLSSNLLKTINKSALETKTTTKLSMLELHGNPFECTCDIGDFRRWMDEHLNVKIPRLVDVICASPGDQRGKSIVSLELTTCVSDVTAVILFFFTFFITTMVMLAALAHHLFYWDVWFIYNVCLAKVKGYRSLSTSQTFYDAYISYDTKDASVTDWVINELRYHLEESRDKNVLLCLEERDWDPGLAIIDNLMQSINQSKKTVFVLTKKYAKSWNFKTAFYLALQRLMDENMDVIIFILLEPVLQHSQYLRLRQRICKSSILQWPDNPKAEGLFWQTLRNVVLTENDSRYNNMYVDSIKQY
Outline: as §1

[3] = tested on: interferon-stimulated responsive elements (ISRE); assay: Activation of ISRE promoter elements by conditioned media from PBMC (HEK-ISREluc); assay type: cell-based, human; conditions: Homo sapiens; conditioned media from PBMC transferred to HEK-ISREluc cells, 24 hours; lowest effective concentration; read-out: PBMC LEC
Outline: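 Human PBMCs (≥2 donors, RPMI + 10% human AB serum, 2×10^5 cells/well) incubated overnight with compound; supernatant transferred to HEK293 cells stably carrying pISRE-Luc for 24 h, then luciferase read. LEC = compound concentration on PBMCs giving luciferase signal at least two-fold above assay SD; recombinant IFN-α-2a standard.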

SMILES | TLR7 LEC [1] [µM] | TLR8 LEC [2] [µM] | minimal effective concentration [3] [µM]
COCCNc1nc(N)nc2ccn(Cc3ccc(C(F)(F)F)cn3)c12 [Compound 117] | 2.950 | >22.7 | 1.43
COCCNc1nc(N)nc2ccn(Cc3ccncc3)c12 [Compound 118] | 1.650 | >25 | 3.01
COCCNc1nc(N)nc2ccn(Cc3cc(OC)ccn3)c12 [Compound 120] | 3.220 | >25 | 2.16
COCCNc1nc(N)nc2ccn(Cc3ccncc3OC)c12 [Compound 121] | 0.172 | >25 | 0.046
COc1cnccc1Cn1ccc2nc(N)nc(NCc3cc(C)on3)c21 [Compound 123] | 0.026 | >25 | 0.002
COCCn1ccc2nc(N)nc(NCc3cc(C)on3)c21 [Compound 128] | 0.342 | >25 | 0.062
CCOc1ccccc1Cn1ccc2nc(N)nc(NCCOC)c21 [Compound 129] | 0.670 | >25 | 0.122
CCCCNc1nc(N)nc2ccn(Cc3ccccc3OC(F)(F)F)c12 [Compound 130] | 1.940 | >25 | 0.804
COCCNc1nc(N)nc2ccn(Cc3cscn3)c12 [Compound 132] | 5.99 | >25 | 0.879
CCCCNc1nc(N)nc2ccn(Cc3ccccc3OCC)c12 [Compound 133] | 0.07 | >25 | 0.023
CCCCNc1nc(N)nc2ccn(Cc3cc(OC4CCOC4)c(OC)cn3)c12 (stereo not drawn) [Compound 134] | 1.20 | >25 | 0.104
COCCNc1nc(N)nc2ccn(Cc3cc(OC4CCOC4)c(OC)cn3)c12 (stereo not drawn) [Compound 135] | 12.5 | >25 | 4.05
CC(C)OCCNc1nc(N)nc2ccn(Cc3ccccn3)c12 [Compound 137] | 13.8 | >25 | 2.03
Nc1nc(NCC2CCCO2)c2c(ccn2Cc2ccccn2)n1 (stereo not drawn) [Compound 139] | 1.41 | >25 | 0.588
Cc1cc(CNc2nc(N)nc3ccn(Cc4cccc(C(F)(F)F)n4)c23)no1 [Compound 143] | 0.10 | >25 | 0.016
COCCNc1nc(N)nc2ccn(Cc3ncc(C)c(OC)c3C)c12 [Compound 147] | 4.49 | >25 | 2.02
CCCCNc1nc(N)nc2ccn(C[C@H]3CCCO3)c12 [Compound 148] | 0.16 | 3.93 | 0.056
CCCCNc1nc(N)nc2ccn(Cc3cccc4c3OCC4)c12 [Compound 149] | 0.02 | >25 | 0.006
COCCNc1nc(N)nc2ccn(Cc3cccc4c3OCC4)c12 [Compound 150] | 0.25 | >25 | 0.054
Cc1cc(CNc2nc(N)nc3ccn(Cc4cccc(CN5CCCC5)c4)c23)no1 [Compound 153] | 0.05 | >25 | 0.002
Cc1cc(CNc2nc(N)nc3ccn(Cc4cscn4)c23)no1 [Compound 154] | 0.08 | >25 | 0.017
Cc1cc(CNc2nc(N)nc3ccn(Cc4cn5ccccc5n4)c23)no1 [Compound 157] | 0.03 | >25 | 0.003
Cc1cc(CNc2nc(N)nc3ccn(Cc4cccc(Cl)n4)c23)no1 [Compound 159] | 0.05 | >25 | 0.019
COCCNc1nc(N)nc2ccn(C[C@H]3CCCO3)c12 [Compound 160] | 8.07 | >25 | 1.81
CCCCNc1nc(N)nc2ccn(Cc3ccccc3OC(F)F)c12 [Compound 161] | 0.02 | >25 | 0.009
COCCNc1nc(N)nc2ccn(Cc3ccccc3OC(F)F)c12 [Compound 162] | 0.32 | >25 | 0.128
CCCCNc1nc(N)nc2ccn(Cc3cccc4c3OCCO4)c12 [Compound 163] | <0.01 | 0.75 | 0.001
COCCNc1nc(N)nc2ccn(Cc3cccc4c3OCCO4)c12 [Compound 164] | 0.04 | 15.93 | 0.025
